For this assay, the target named is T1, Ox-R2 (orexin R2 receptor) (Homo sapiens, UniProt O43614).
T1 construct: gene HCRTR2
T1 sequence (O43614 1-444): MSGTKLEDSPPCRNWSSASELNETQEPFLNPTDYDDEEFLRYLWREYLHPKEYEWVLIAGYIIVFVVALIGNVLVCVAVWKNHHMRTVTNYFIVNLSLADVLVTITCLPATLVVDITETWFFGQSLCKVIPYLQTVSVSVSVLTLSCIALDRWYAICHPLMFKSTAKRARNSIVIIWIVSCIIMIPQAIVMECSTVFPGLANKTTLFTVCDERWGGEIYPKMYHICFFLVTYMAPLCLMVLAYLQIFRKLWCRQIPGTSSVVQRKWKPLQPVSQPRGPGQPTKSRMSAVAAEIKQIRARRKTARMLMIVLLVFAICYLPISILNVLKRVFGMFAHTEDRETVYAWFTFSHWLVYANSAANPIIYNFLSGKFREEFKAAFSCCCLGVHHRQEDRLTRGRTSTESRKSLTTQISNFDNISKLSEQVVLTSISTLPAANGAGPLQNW
The experiment in a line: FLUO-3 calcium mobilization in HEK-293 cells, inhibition of […] orexin-B response. The assay is classed as cell-based. For orientation: Calcium flux is commonly read through the fluorescence of an indicator in the cells.

The IC50 is the concentration that gives 50% inhibition.

As to `CNC(=O)[C@@H](c1ccccc1)N1CCc2cc(OC)c(OC)cc2[C@@H]1CCc1ccc(C(F)(F)F)cc1` [almorexant], the IC50 turned out to be 0.332 ± 0.013 µM.

The values above are taken from publication PMC3448615 (PLoS ONE, 2012).
